Data: patent US20120322890A1, “Inhibition of the Survival of Bone Cancer by Cyclohexenone Compounds from Antrodia Camphorata” (Golden Biotechnology Corporation, priority 2009, published 2012)

System: bone cancer cell line MG-63
Experiment: In vitro survival assay (MTT) for inhibition of bone cancer cells
Type: cell-based
Conditions: Homo sapiens, MG-63 cells, 48 hours treatment, absorbance at 570 nm, read-out: IC50 (half inhibition concentration), survival of bone cancer cells
Protocol: Inhibiting effects of bone cancer cells by cyclohexenone compounds of Antrodia camphorata from example 1 were assessed according to the anticancer-drug screening model of National Cancer Institute (NCI). The compound 4-hydroxy-2,3-dimethoxy-6-methyl-5-(3,7,11-trimethyl-dodeca-2,6,10-trienyl)-cyclohex-2-enone from example 1 was added into the culture media of bone cancer cell line MG-63 to determine the survival rates. Survival of cell was analyzed using MTT assay. MG-63 cell line was an osteoblast-like fibroblast cell line and derived from human osteosarcoma, which had similar cell type and feature with osteoblast.
MTT assay is commonly used to analyze cell proliferation, survival rate of viable cells and cytotoxicity. MTT (3[4,5-dimethylthiazol-2-yl]-2,5-diphenyltetrazolium bromide) is a yellow dye which can be converted to water-insoluble purple formazan on the reductive cleavage of its tetrazolium ring by the succinate tetrazolium reductase in mitochondria of cells. The amount of formazan produced is used to detect the number of viable cells and calculate the survival rates.
The MG-63 cells were cultivated in Dulbecco's modified Eagle's medium (DMEM) supplemented with 10% fetal bovine serum, 100 IU/ml of Penicillin and […] of Streptomycin at 37° C., 5% CO2 for 24 hours. […] The absorbances were measured at 570 nm with an ELISA Reader to determine the survival rates.

COC1=C(OC)C(O)C(C/C=C(\C)CC/C=C(\C)CCC=C(C)C)C(C)C1=O (stereo not shown) [formula 2, 4-hydroxy-2,3-dimethoxy-6-methyl-5-(3,7,11-trimethyl-dodeca-2,6,10-trienyl)-cyclohex-2-enone] was tested, and the IC50 was 2.09 µg/mL.
